Data reported in ChEMBL document CHEMBL1944592 (Bioorg Med Chem Lett, 2012).

How the values were obtained:
Assay type in all cases: functional, cell-based
[1] = target: T1, Peroxisome proliferator-activated receptor gamma (Homo sapiens, UniProt P37231); experiment: Partial agonist activity at human PPARgamma expressed in MG-63 cells by reporter gene-based transactivation assay
T1 sequence (P37231 whole entry): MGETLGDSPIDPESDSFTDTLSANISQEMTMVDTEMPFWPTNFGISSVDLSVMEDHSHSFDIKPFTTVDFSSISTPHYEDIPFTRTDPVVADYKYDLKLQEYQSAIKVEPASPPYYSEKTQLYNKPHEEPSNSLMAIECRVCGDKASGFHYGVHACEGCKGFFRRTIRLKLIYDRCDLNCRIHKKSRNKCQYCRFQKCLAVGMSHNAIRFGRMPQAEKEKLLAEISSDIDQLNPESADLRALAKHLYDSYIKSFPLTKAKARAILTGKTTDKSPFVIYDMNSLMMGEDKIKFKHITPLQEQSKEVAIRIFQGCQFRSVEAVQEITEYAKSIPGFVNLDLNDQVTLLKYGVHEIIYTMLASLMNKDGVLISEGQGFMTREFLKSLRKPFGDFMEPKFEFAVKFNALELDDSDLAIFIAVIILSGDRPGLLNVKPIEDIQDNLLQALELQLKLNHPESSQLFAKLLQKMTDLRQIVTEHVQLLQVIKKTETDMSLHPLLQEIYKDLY

[2] = target: T2, Peroxisome proliferator-activated receptor gamma (Homo sapiens) (UniProt P37231); experiment: Partial agonist activity at human PPARgamma expressed in MG-63 cells at 2 times EC50 concentration by reporter gene-based transactivation assay relative to PPARgamma full agonist
T2 sequence (whole entry): T1 sequence (P37231 whole entry)

[3] = target: T1, Peroxisome proliferator-activated receptor gamma; experiment: Agonist activity at human PPARgamma expressed in MG-63 cells by reporter gene-based transactivation assay
[4] = target: T2, Peroxisome proliferator-activated receptor gamma (Homo sapiens); experiment: Agonist activity at human PPARgamma expressed in MG-63 cells at 2 times EC50 concentration by reporter gene-based transactivation assay relative to PPARgamma full agonist

EC50 [1] [µM] | Emax [2] [%] | EC50 [3] [µM] | Emax [4] [%] | Compound
0.21 | 51 |  |  | COc1cc(O)c2c(c1C(=O)NCc1cc(C)cc3ccccc13)OC1=CC(O)=C(C(C)=O)C(=O)[C@]12C
0.88 | 55 |  |  | COC(=O)c1cc(CNC(=O)c2c(OC)cc(O)c3c2OC2=CC(O)=C(C(C)=O)C(=O)[C@]23C)c2ccccc2c1
0.2 | 44 |  |  | COCc1cc(CNC(=O)c2c(OC)cc(O)c3c2OC2=CC(O)=C(C(C)=O)C(=O)[C@]23C)c2ccccc2c1
0.68 | 50 |  |  | COc1cc(O)c2c(c1C(=O)NCc1cc(OC(C)=O)cc3ccccc13)OC1=CC(O)=C(C(C)=O)C(=O)[C@]12C
0.094 | 32 |  |  | COc1cc(CNC(=O)c2c(OC)cc(O)c3c2OC2=CC(O)=C(C(C)=O)C(=O)[C@]23C)c2ccccc2c1
 |  | 0.32 | 109 | COc1cc(O)c2c(c1C(=O)NCc1cc(CCC(=O)O)cc3ccccc13)OC1=CC(O)=C(C(C)=O)C(=O)[C@]12C
 |  | 0.042 | 99 | COC(=O)CCCc1cc(CNC(=O)c2c(OC)cc(O)c3c2OC2=CC(O)=C(C(C)=O)C(=O)[C@]23C)c2ccccc2c1
0.13 | 29 |  |  | COc1cc(O)c2c(c1C(=O)NCc1cc(O)cc3ccccc13)OC1=CC(O)=C(C(C)=O)C(=O)[C@]12C
> 1 |  |  |  | COc1cc(O)c2c(c1C(=O)NCc1cc(C(=O)O)cc3ccccc13)OC1=CC(O)=C(C(C)=O)C(=O)[C@]12C

Compound | EC50 [1] [µM] | Emax [2] [%] | EC50 [3] [µM] | Emax [4] [%]
COc1cc(O)c2c(c1C(=O)NCc1cc(CCCC(=O)O)cc3ccccc13)OC1=CC(O)=C(C(C)=O)C(=O)[C@]12C |  |  | 0.067 | 105
CCOc1cc(CNC(=O)c2c(OC)cc(O)c3c2OC2=CC(O)=C(C(C)=O)C(=O)[C@]23C)c2ccccc2c1 | 0.24 | 22 |  | 
COC(=O)CCc1cc(CNC(=O)c2c(OC)cc(O)c3c2OC2=CC(O)=C(C(C)=O)C(=O)[C@]23C)c2ccccc2c1 | 0.13 | 79 |  | 
